# PubChem BioAssay (NCI)
#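 Test compounds were applied to cells in 96-well plates for 48 hours at 5 doses. GI50: concentration for 50% inhibition of growth. TGI: total growth inhibition.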
# Assays:
# Assay in all cases: NCI-60 cell line screen, 48 h
# [1] = tested on: SR leukemia
# [2] = tested on: IGROV1 ovarian
# [3] = tested on: HCC-2998 colon
# [4] = tested on: NCI-H522 lung
# [5] = tested on: SW-620 colon
# [6] = tested on: TK-10 renal
# [7] = tested on: OVCAR-5 ovarian
# [8] = tested on: RXF 393 renal
# [9] = tested on: PC-3 prostate
# [10] = tested on: EKVX NSCLC
# [11] = tested on: SNB-19 CNS
# [12] = tested on: COLO 205 colon
# [13] = tested on: OVCAR-4 ovarian
# [14] = tested on: SK-MEL-2 melanoma
# [15] = tested on: ACHN renal
# [16] = tested on: HOP-92 NSCLC
# [17] = tested on: HT29 colon
# [18] = tested on: SN12C renal
# [19] = tested on: SF-539 CNS
# [20] = tested on: SF-295 CNS
# [21] = tested on: K-562 leukemia
# [22] = tested on: DU-145 prostate
# [23] = tested on: HL-60(TB) leukemia
# [24] = tested on: HCT-15 colon
# [25] = tested on: SNB-75 CNS
# [26] = tested on: T-47D breast
# [27] = tested on: 786-0 renal
# [28] = tested on: NCI-H460 lung
# [29] = tested on: A498 renal
# [30] = tested on: A549 NSCLC
# [31] = tested on: MCF7 breast
# [32] = tested on: MALME-3M melanoma
# [33] = tested on: HCT-116 colon
# [34] = tested on: CCRF-CEM leukemia
# [35] = tested on: NCI/ADR-RES ovarian
# [36] = tested on: LOX IMVI melanoma
# [37] = tested on: NCI-H23 lung
# [38] = tested on: SK-OV-3 ovarian
# [39] = tested on: MDA-MB-435
# [40] = tested on: RPMI-8226 leukemia
# [41] = tested on: OVCAR-8 ovarian
# [42] = tested on: UACC-257 melanoma
# [43] = tested on: M14 melanoma
# [44] = tested on: KM12 colon
# [45] = tested on: SK-MEL-28 melanoma
# [46] = tested on: MOLT-4 leukemia
# [47] = tested on: U251 CNS
# [48] = tested on: CAKI-1 renal
# [49] = tested on: OVCAR-3 ovarian
# [50] = tested on: NCI-H226 lung
# [51] = tested on: HOP-62 NSCLC
# [52] = tested on: SF-268 CNS
# [53] = tested on: UACC-62 melanoma
# [54] = tested on: UO-31 renal
# [55] = tested on: HS 578T breast
# [56] = tested on: MDA-MB-231 breast
compound,measurement,setting,value
C/C(=C\c1csc(C)n1)[C@@H]1C[C@@H]2O[C@]2(C)CCC[C@H](C)[C@H](O)[C@@H](C)C(=O)C(C)(C)[C@@H](O)CC(=O)O1,TGI,[1],< 0.1 nM
same,TGI,[2],> 100000 nM
same,TGI,[3],< 0.1 nM
same,TGI,[4],< 0.1 nM
same,TGI,[5],16100 nM
same,TGI,[6],44800 nM
same,TGI,[7],> 100000 nM
same,TGI,[8],4.18 nM
same,TGI,[9],> 100000 nM
same,TGI,[10],> 100000 nM
same,TGI,[11],> 100000 nM
same,TGI,[12],< 0.1 nM
same,GI50,[13],60100 nM
same,TGI,[13],> 100000 nM
same,TGI,[14],33700 nM
same,TGI,[15],> 100000 nM
same,TGI,[16],26.3 nM
same,TGI,[17],< 0.1 nM
same,TGI,[18],> 100000 nM
same,TGI,[19],< 0.1 nM
same,TGI,[20],< 0.1 nM
same,TGI,[21],274 nM
same,TGI,[22],0.139 nM
same,TGI,[23],< 0.1 nM
same,TGI,[24],4.47 nM
same,TGI,[25],< 0.1 nM
same,TGI,[26],> 100000 nM
same,TGI,[27],> 100000 nM
same,TGI,[28],> 100000 nM
same,TGI,[29],116 nM
same,TGI,[30],> 100000 nM
same,TGI,[31],11.2 nM
same,TGI,[32],> 100000 nM
same,TGI,[33],> 100000 nM
COc1cc2c(cc1OCCCC(=O)Nc1ccc3ccc4cccc5ccc1c3c45)N=C[C@@H]1CCCN1C2=O,GI50,[1],< 10 nM
same,GI50,[2],< 16.7 nM
same,GI50,[3],< 10 nM
same,TGI,[3],< 15.7 nM
same,GI50,[34],33.5 nM
same,TGI,[34],936 nM
same,GI50,[35],54.3 nM
same,TGI,[35],262 nM
same,GI50,[36],14.3 nM
same,TGI,[36],> 100000 nM
same,GI50,[4],< 13.3 nM
same,GI50,[5],< 12.6 nM
same,TGI,[5],48.3 nM
same,GI50,[6],38.4 nM
same,TGI,[6],237 nM
same,GI50,[7],< 10 nM
same,TGI,[7],< 50.6 nM
same,GI50,[37],< 10 nM
same,TGI,[37],< 10 nM
same,GI50,[38],10300 nM
same,TGI,[38],46900 nM
same,GI50,[39],1610 nM
same,TGI,[39],3070 nM
same,GI50,[9],222 nM
same,TGI,[9],6690 nM
same,GI50,[10],29.9 nM
same,TGI,[10],169 nM
same,GI50,[40],42 nM
same,TGI,[40],238 nM
same,GI50,[41],< 13.4 nM
same,TGI,[41],< 24.5 nM
same,GI50,[12],2030 nM
same,TGI,[12],4770 nM
same,GI50,[42],36.8 nM
same,TGI,[42],104 nM
same,GI50,[13],< 10 nM
same,TGI,[13],10100 nM
same,GI50,[14],< 10 nM
same,TGI,[14],< 10 nM
same,GI50,[43],< 10 nM
same,TGI,[43],< 10 nM
same,GI50,[44],104 nM
same,TGI,[44],725 nM
same,GI50,[15],44 nM
same,TGI,[15],> 100000 nM
same,GI50,[45],< 10 nM
same,TGI,[45],< 10 nM
same,GI50,[16],147 nM
same,TGI,[16],1070 nM
same,TGI,[17],> 83600 nM
same,GI50,[18],< 13.6 nM
same,TGI,[18],42.3 nM
same,GI50,[46],98.7 nM
same,TGI,[46],355 nM
same,GI50,[19],< 10 nM
same,TGI,[19],< 10 nM
same,GI50,[20],217 nM
same,TGI,[20],1080 nM
same,GI50,[21],190 nM
same,TGI,[21],14100 nM
same,GI50,[47],< 10 nM
same,TGI,[47],> 100000 nM
same,GI50,[48],434 nM
same,TGI,[48],1630 nM
same,GI50,[22],< 10 nM
same,TGI,[22],< 10 nM
same,GI50,[49],197 nM
same,TGI,[49],518 nM
same,GI50,[50],< 10.9 nM
same,TGI,[50],< 24.3 nM
same,GI50,[51],< 10 nM
same,TGI,[51],1740 nM
same,GI50,[24],169 nM
same,TGI,[24],> 100000 nM
same,TGI,[25],1120 nM
same,GI50,[28],< 48.4 nM
same,TGI,[28],310 nM
same,GI50,[52],270 nM
same,TGI,[52],864 nM
same,GI50,[29],< 24.3 nM
same,TGI,[29],< 50.9 nM
same,GI50,[30],< 21 nM
same,GI50,[53],< 10 nM
same,TGI,[53],26.3 nM
same,TGI,[31],297 nM
same,GI50,[54],< 15.8 nM
same,GI50,[55],< 16.7 nM
same,TGI,[55],64 nM
same,GI50,[56],13.5 nM
same,TGI,[56],51 nM
